≈ marks a conversion by molar mass, not a printed value. Read-outs that look alike come from different tables or passages of the source.
Assays:
Type in all cases: cell-based
[1] = test system: K. pneumoniae ATCC 10031; assay: MIC against K. pneumoniae ATCC 10031; conditions: Klebsiella pneumoniae, ATCC10031
[2] = test system: P. aeruginosa ATCC 27853; assay: MIC against P. aeruginosa ATCC 27853; conditions: Pseudomonas aeruginosa, ATCC27853
[3] = test system: S. aureus ATCC 29213; assay: MIC against S. aureus ATCC 29213; conditions: Staphylococcus aureus
[4] = test system: E. coli MP-9 ΔTolC; assay: MIC against E. coli MP-9 ΔTolC; conditions: Escherichia coli
[5] = test system: S. aureus MP-513 clinical cErm; assay: MIC against S. aureus MP-513 clinical cErm; conditions: Staphylococcus aureus
[6] = test system: E. coli ATCC 25922; assay: MIC against E. coli ATCC 25922; conditions: Escherichia coli, ATCC25922
[7] = test system: P. aeruginosa MMX Mex parent strain; assay: MIC against P. aeruginosa MMX Mex parent strain; conditions: Pseudomonas aeruginosa
[8] = test system: S. aureus BAA 977 iErmA; assay: MIC against S. aureus BAA 977 iErmA; conditions: Staphylococcus aureus, BAA977
[9] = test system: S. pyogenes MMX 946 Macrolide-Resistant; assay: MIC against S. pyogenes MMX 946 Macrolide-Resistant; conditions: Streptococcus pyogenes
[10] = test system: E. faecalis ATCC 29212; assay: MIC against E. faecalis ATCC 29212; conditions: Enterococcus faecalis
[11] = test system: S. pneumoniae ATCC 49619; assay: MIC against S. pneumoniae ATCC 49619; conditions: Streptococcus pneumoniae, ATCC49619; S. pneumoniae ATCC 49619; read-out: MIC
[12] = test system: S. pneumoniae MMX 3031 cMefA; assay: MIC against S. pneumoniae MMX 3031 cMefA; conditions: Streptococcus pneumoniae, MMX3031CMEFA
[13] = test system: E. faecalis MMX 847 Macrolide-Resistant; assay: MIC against E. faecalis MMX 847 Macrolide-Resistant; conditions: Enterococcus faecalis
[14] = test system: P. aeruginosa MMX 3476 Δmex; assay: MIC against P. aeruginosa MMX 3476 Δmex; conditions: Pseudomonas aeruginosa
[15] = test system: S. pyogenes ATCC 19615; assay: MIC against S. pyogenes ATCC 19615; conditions: Streptococcus pyogenes, ATCC19615
[16] = test system: S. aureus MMX 3035 cErmA; assay: MIC against S. aureus MMX 3035 cErmA; conditions: Staphylococcus aureus, MMX3035CERMA
[17] = test system: E. coli MMX TolC parent strain; assay: MIC against E. coli MMX TolC parent strain; conditions: Escherichia coli
[18] = test system: B. fragilis ATCC 25285; assay: MIC against B. fragilis ATCC 25285; conditions: Bacteroides fragilis, ATCC25285; B. fragilis ATCC 25285; read-out: MIC
[19] = test system: C. difficile BAA 1805; assay: MIC against C. difficile BAA 1805; conditions: Clostridioides difficile, BAA1805
[20] = test system: S. pneumoniae MMX 3028 cErmB; assay: MIC against S. pneumoniae MMX 3028 cErmB; conditions: Streptococcus pneumoniae, MMX3028CERMB
[21] = test system: H. influenzae ATCC 49247; assay: MIC against H. influenzae ATCC 49247; conditions: Haemophilus influenzae, ATCC49247; H. influenzae ATCC 49247; read-out: MIC
[22] = test system: S. aureus Micromyx USA 300; assay: MIC against S. aureus Micromyx USA 300; conditions: Staphylococcus aureus, USA300; S. aureus Micromyx USA 300; read-out: MIC
[23] = test system: E. coli ATCC 15922; assay: MIC against E. coli ATCC 15922; conditions: Escherichia coli, ATCC15922; E. coli ATCC 15922; read-out: MIC
[24] = test system: E. coli MP-74 LptD mutant; assay: MIC against E. coli MP-74 LptD mutant; conditions: Escherichia coli
[25] = test system: S. aureus MP-549 msr(a) USA 300; assay: MIC against S. aureus MP-549 msr(a) USA 300; conditions: Staphylococcus aureus, USA300, S. aureus MP-549 msr(a) USA 300
[26] = S. pyogenes ATCC 19615, read-out: MIC
[27] = S. pneumoniae MMX 3028 cErmB, read-out: MIC
[28] = K. pneumoniae ATCC 10031, read-out: MIC
[29] = E. faecalis MMX 847 MacRes, read-out: MIC
[30] = S. aureus MMX 3035 cErmA, read-out: MIC

| SMILES | MIC [2] [µg/mL] | MIC [4] [µg/mL] | MIC [6] [µg/mL] | MIC ([10]; ATCC29212, read-out: MIC) [µg/mL] | MIC [11] [µg/mL] | MIC [12] [µg/mL] | MIC [15, 26] [µg/mL] | MIC [21] [µg/mL] | MIC [23] [µg/mL] | MIC [20, 27] [µg/mL] | MIC [1, 28] [µg/mL] | MIC [16, 30] [µg/mL] | further results |
| --- | --- | --- | --- | --- | --- | --- | --- | --- | --- | --- | --- | --- | --- |
| CSC1O[C@H]([C@H](NC(=O)[C@H]2NC[C@@H]3CN(CC(=O)O)CCO[C@H]32)[C@H](C)Cl)C(O)[C@@H](O)[C@H]1O (stereo partly drawn) [FSA-504063] | > 64 | > 64 | > 64 |  |  |  |  |  |  |  |  |  | MIC [1]: > 64 µg/mL; MIC ([3]; ATCC29213): > 64 µg/mL; MIC [5]: > 64 µg/mL |
| C=CC1=CCO[C@@H]2[C@H](CN[C@@H]2C(=O)N[C@H]([C@H](C)Cl)[C@H]2OC(SC)[C@H](O)[C@H](O)C2O)C1 (stereo partly drawn) [FSA-507041] | > 32 |  | > 32 | 2 (≈ 4.32 µM) | < 0.03 | < 0.03 | 0.06 (≈ 0.13 µM) |  |  |  |  |  | MIC [7]: > 32 µg/mL; MIC [8]: 0.5 µg/mL (≈ 1.08 µM); MIC [9]: > 32 µg/mL; MIC ([3]; ATCC29213, S. aureus ATCC 29213, read-out: MIC): 0.5 µg/mL (≈ 1.08 µM); MIC [13]: > 32 µg/mL; MIC [14]: > 32 µg/mL; MIC [16]: > 32 µg/mL; MIC [17]: > 32 µg/mL; MIC [18]: 2 µg/mL (≈ 4.32 µM); MIC ([19]; C. difficile BAA 1805, read-out: MIC): 0.5 µg/mL (≈ 1.08 µM) |
| CSC1O[C@H]([C@H](NC(=O)[C@H]2NC[C@H]3CC=CCO[C@H]32)[C@H](C)Cl)C(O)[C@@H](O)[C@H]1O (stereo partly drawn) [FSA-507051] | > 32 |  | > 32 |  | 1 (≈ 2.29 µM) | 1 (≈ 2.29 µM) |  | 6 (≈ 13.7 µM) |  |  |  |  | MIC [20]: > 32 µg/mL; MIC [7]: > 32 µg/mL; MIC [9]: > 32 µg/mL; MIC ([10]; ATCC29212): > 32 µg/mL; MIC [13]: > 32 µg/mL; MIC [14]: > 32 µg/mL; MIC [15]: 0.5 µg/mL (≈ 1.14 µM); MIC [16]: > 32 µg/mL; MIC [17]: > 32 µg/mL; MIC [19]: > 32 µg/mL |
| CSC1O[C@H]([C@H](NC(=O)[C@H]2NC[C@@H]3C[C@@H](c4ccc(C(F)(F)F)cc4)CCO[C@H]32)[C@H](C)Cl)C(O)[C@@H](O)[C@H]1O (stereo partly drawn) [FSA-509019] |  |  |  |  |  |  |  | 4 (≈ 6.86 µM) | > 64 |  |  |  | MIC ([7]; P. aeruginosa MMX Mex parent strain, read-out: MIC): > 64 µg/mL; MIC [22]: 0.5 µg/mL (≈ 0.858 µM); MIC ([2]; P. aeruginosa ATCC 27853, read-out: MIC): > 64 µg/mL |
| CSC1O[C@H]([C@H](NC(=O)[C@H]2NC[C@@H]3C[C@@H](CCc4cccc(F)c4)CCO[C@H]32)[C@H](C)Cl)C(O)[C@@H](O)[C@H]1O (stereo partly drawn) [FSA-510022] |  | 4 (≈ 7.13 µM) |  |  | ≤ 0.06 | ≤ 0.06 | ≤ 0.06 | 1 (≈ 1.78 µM) |  | 4 (≈ 7.13 µM) | 2 (≈ 3.56 µM) | 2 (≈ 3.56 µM) | MIC ([9]; S. pyogenes MMX 946 MacRes, read-out: MIC): 0.5 µg/mL (≈ 0.891 µM); MIC [13, 29]: 2 µg/mL (≈ 3.56 µM); MIC [24]: 4 µg/mL (≈ 7.13 µM) |
| CSC1O[C@H]([C@H](NC(=O)[C@H]2NC[C@@H]3C[C@@H](c4cccc(F)c4)CCO[C@H]32)[C@H](C)Cl)C(O)[C@@H](O)[C@H]1O (stereo partly drawn) [FSA-511077] |  | 4 (≈ 7.5 µM) |  | 0.5 (≈ 0.938 µM) | ≤ 0.06 | ≤ 0.06 | ≤ 0.06 |  | > 64 | 8 (≈ 15 µM) | 8 (≈ 15 µM) | > 64 | MIC [25]: 0.23 µg/mL (≈ 0.431 µM) |
| CSC1O[C@H]([C@H](NC(=O)[C@H]2NC[C@@H]3C[C@@H](c4ccc(F)cc4F)CCO[C@H]32)[C@H](C)Cl)C(O)[C@@H](O)[C@H]1O (stereo partly drawn) [FSA-511078] |  | 2 (≈ 3.63 µM) |  |  | ≤ 0.06 | ≤ 0.06 | ≤ 0.06 |  | > 64 | 4 (≈ 7.26 µM) | 8 (≈ 14.5 µM) | > 64 | MIC [24]: 8 µg/mL (≈ 14.5 µM) |
| CSC1O[C@H]([C@H](NC(=O)[C@H]2NC[C@@H]3C[C@@H](c4cc(F)cc(F)c4)CCO[C@H]32)[C@H](C)Cl)C(O)[C@@H](O)[C@H]1O (stereo partly drawn) [FSA-511080] |  | 4 (≈ 7.26 µM) |  | 0.5 (≈ 0.907 µM) | ≤ 0.06 | ≤ 0.06 | ≤ 0.06 |  | > 64 | 8 (≈ 14.5 µM) |  | > 64 | MIC [13, 29]: > 64 µg/mL |
